Measurements published in the NIST ThermoML archive (doi:10.1016/j.fluid.2008.06.006).
± gives the expanded uncertainty stated by the source.

What was measured:
[1] = refractive index (Na D-line) (dimensionless); details: 298.15 K; 101.33 kPa; Liquid; Standard Abbe refractometry
[2] = for vapor or sublimation pressure / mass density: Liquid; for mass density: 298.15 K, 101.33 kPa; for surface tension liquid-gas: 303.15 K, Ring tensiometer
[3] = xn = mol fraction of the nth substance listed; details: 303.15 K, Maximal bubble pressure

## CC(C)=O [acetone]
[1]
  refractive index: 1.35732 ± 0.00031
[2]; 297.65 K, Ebulliometric method (Recirculating still)
  vapor or sublimation pressure: 30.06 ± 0.21 kPa
[2]
  mass density: 784.23 ± 0.24 kg/m3
  surface tension liquid-gas: 22.45 ± 0.37 mN/m
[2]; 303.23 K, Ebulliometric method (Recirculating still)
  vapor or sublimation pressure: 38.04 ± 0.21 kPa
[2]; 307.39 K, Ebulliometric method (Recirculating still)
  vapor or sublimation pressure: 45.04 ± 0.21 kPa
[2]; 310.58 K, Ebulliometric method (Recirculating still)
  vapor or sublimation pressure: 51.08 ± 0.22 kPa
[2]; 314.35 K, Ebulliometric method (Recirculating still)
  vapor or sublimation pressure: 59.07 ± 0.22 kPa
[2]; 317.33 K, Ebulliometric method (Recirculating still)
  vapor or sublimation pressure: 66.06 ± 0.22 kPa
[2]; 320.08 K, Ebulliometric method (Recirculating still)
  vapor or sublimation pressure: 73.08 ± 0.23 kPa
[2]; 322.61 K, Ebulliometric method (Recirculating still)
  vapor or sublimation pressure: 80.07 ± 0.23 kPa
[2]; 324.96 K, Ebulliometric method (Recirculating still)
  vapor or sublimation pressure: 87.09 ± 0.24 kPa
[2]; 327.17 K, Ebulliometric method (Recirculating still)
  vapor or sublimation pressure: 94.07 ± 0.24 kPa
[2]; 329.33 K, Ebulliometric method (Recirculating still)
  vapor or sublimation pressure: 101.35 ± 0.24 kPa

## CC(C)=O [acetone] + C1CCCCC1
[3]; x1 = 0.047
  surface tension liquid-gas: 23.85 ± 0.26 mN/m
[3]; x1 = 0.091
  surface tension liquid-gas: 23.6 ± 0.26 mN/m
[3]; x1 = 0.185
  surface tension liquid-gas: 23.1 ± 0.26 mN/m
[3]; x1 = 0.298
  surface tension liquid-gas: 22.7 ± 0.26 mN/m
[3]; x1 = 0.403
  surface tension liquid-gas: 22.4 ± 0.26 mN/m
[3]; x1 = 0.513
  surface tension liquid-gas: 22.2 ± 0.26 mN/m
[3]; x1 = 0.621
  surface tension liquid-gas: 22.1 ± 0.26 mN/m
[3]; x1 = 0.736
  surface tension liquid-gas: 22.05 ± 0.26 mN/m
[3]; x1 = 0.842
  surface tension liquid-gas: 22.15 ± 0.26 mN/m
[3]; x1 = 0.943
  surface tension liquid-gas: 22.4 ± 0.26 mN/m

## C1CCCCC1 [cyclohexane]
[1]
  refractive index: 1.42508 ± 0.00031
[2]
  mass density: 773.84 ± 0.25 kg/m3
  surface tension liquid-gas: 24.1 ± 0.38 mN/m
[2]; 302.71 K
  vapor or sublimation pressure: 16.01 ± 0.18 kPa
[2]; 312.45 K
  vapor or sublimation pressure: 24.02 ± 0.19 kPa
[2]; 318.13 K
  vapor or sublimation pressure: 30.03 ± 0.24 kPa
[2]; 324.4 K
  vapor or sublimation pressure: 38.02 ± 0.28 kPa
[2]; 329.08 K
  vapor or sublimation pressure: 45.03 ± 0.32 kPa
[2]; 332.63 K
  vapor or sublimation pressure: 51.01 ± 0.36 kPa
[2]; 336.88 K
  vapor or sublimation pressure: 59.01 ± 0.4 kPa
[2]; 340.25 K
  vapor or sublimation pressure: 66.01 ± 0.44 kPa
[2]; 343.34 K
  vapor or sublimation pressure: 73.02 ± 0.47 kPa
[2]; 346.22 K
  vapor or sublimation pressure: 80.03 ± 0.51 kPa
[2]; 348.89 K
  vapor or sublimation pressure: 87.02 ± 0.54 kPa
[2]; 351.4 K
  vapor or sublimation pressure: 94.02 ± 0.58 kPa
[2]; 354.06 K
  vapor or sublimation pressure: 101.9 ± 0.6 kPa

## CC(C)OC(C)C [diisopropyl ether]
[1]
  refractive index: 1.36644 ± 0.00032
[2]; 293.25 K, Ebulliometric method (Recirculating still)
  vapor or sublimation pressure: 16.02 ± 0.2 kPa
[2]
  mass density: 718.34 ± 0.45 kg/m3
  surface tension liquid-gas: 16.7 ± 0.32 mN/m
[2]; 302.42 K, Ebulliometric method (Recirculating still)
  vapor or sublimation pressure: 24.02 ± 0.2 kPa
[2]; 307.79 K, Ebulliometric method (Recirculating still)
  vapor or sublimation pressure: 30.02 ± 0.21 kPa
[2]; 313.73 K, Ebulliometric method (Recirculating still)
  vapor or sublimation pressure: 38.02 ± 0.21 kPa
[2]; 318.15 K, Ebulliometric method (Recirculating still)
  vapor or sublimation pressure: 45.02 ± 0.21 kPa
[2]; 321.52 K, Ebulliometric method (Recirculating still)
  vapor or sublimation pressure: 51.01 ± 0.22 kPa
[2]; 325.55 K, Ebulliometric method (Recirculating still)
  vapor or sublimation pressure: 59.01 ± 0.22 kPa
[2]; 328.74 K, Ebulliometric method (Recirculating still)
  vapor or sublimation pressure: 66.01 ± 0.22 kPa
[2]; 331.67 K, Ebulliometric method (Recirculating still)
  vapor or sublimation pressure: 73.01 ± 0.23 kPa
[2]; 334.38 K, Ebulliometric method (Recirculating still)
  vapor or sublimation pressure: 80.01 ± 0.23 kPa
[2]; 336.91 K, Ebulliometric method (Recirculating still)
  vapor or sublimation pressure: 87.01 ± 0.23 kPa

## CC(C)OC(C)C [diisopropyl ether] + C1CCCCC1
[3]; x1 = 0.049
  surface tension liquid-gas: 23.3 ± 0.26 mN/m
[3]; x1 = 0.098
  surface tension liquid-gas: 22.7 ± 0.26 mN/m
[3]; x1 = 0.199
  surface tension liquid-gas: 21.4 ± 0.26 mN/m
[3]; x1 = 0.301
  surface tension liquid-gas: 20.7 ± 0.26 mN/m
[3]; x1 = 0.403
  surface tension liquid-gas: 19.75 ± 0.25 mN/m
[3]; x1 = 0.509
  surface tension liquid-gas: 19 ± 0.25 mN/m
[3]; x1 = 0.622
  surface tension liquid-gas: 18.3 ± 0.25 mN/m
[3]; x1 = 0.727
  surface tension liquid-gas: 17.8 ± 0.25 mN/m
[3]; x1 = 0.837
  surface tension liquid-gas: 17.3 ± 0.25 mN/m
[3]; x1 = 0.936
  surface tension liquid-gas: 16.9 ± 0.25 mN/m
[3]; x1 = 0.967
  surface tension liquid-gas: 16.8 ± 0.25 mN/m

## CC(C)OC(C)C [diisopropyl ether] + CC(C)=O
[3]; x2 = 0.046
  surface tension liquid-gas: 16.75 ± 0.25 mN/m
[3]; x2 = 0.089
  surface tension liquid-gas: 16.8 ± 0.25 mN/m
[3]; x2 = 0.187
  surface tension liquid-gas: 16.95 ± 0.25 mN/m
[3]; x2 = 0.29
  surface tension liquid-gas: 17.3 ± 0.25 mN/m
[3]; x2 = 0.39
  surface tension liquid-gas: 17.65 ± 0.25 mN/m
[3]; x2 = 0.499
  surface tension liquid-gas: 18.05 ± 0.25 mN/m
[3]; x2 = 0.61
  surface tension liquid-gas: 18.6 ± 0.25 mN/m
[3]; x2 = 0.722
  surface tension liquid-gas: 19.2 ± 0.25 mN/m
[3]; x2 = 0.829
  surface tension liquid-gas: 20.15 ± 0.25 mN/m
[3]; x2 = 0.93
  surface tension liquid-gas: 21.3 ± 0.26 mN/m
[3]; x2 = 0.973
  surface tension liquid-gas: 21.94 ± 0.26 mN/m
